Measured values: patent US8829035B2, “Agent for treatment or prevention of diseases associated with activity of neurotrophic factors” (Sumitomo Chemical Company, Limited, priority 2009, dated 2014)
Structures can show the parent of a compound that is named as a salt.

Test system: activity of 200 ng/mL of NGF (NXF promoter-driven luciferase in PC12 cells)
Assay: Luciferase reporter assay (NXF promoter) in PC12 cells: potentiation of NGF activity
Assay type: cell-based, rat
Design: key: +: Showed relatively weak potentiation (potentiation only exhibited at 10 μM); ++: Showed potentiation; +++: Showed particularly strong potentiation (2-fold or greater potentiation of the activity of 200 ng/mL of NGF at 1 μM)
Procedure: The forward primer 5′-[…]-3′ and the reverse primer 5′-[…]-3′ were prepared as the PCR primers according to the sequence information for the NXF gene genome sequence (Accession Nos. AB054577 and NC—000085), and the PCR method was used to isolate from approximately 5 kbp upstream from the translated region of the NXF gene promoter portion to the vicinity of the transcription start site. For this, 1 μg of mouse genomic DNA (Takara) was used as the template, and the 2-step PCR reaction was carried out for 35 cycles, the conditions for which were 95° C./1 m in the denaturing step, and 68° C./8 m in the annealing and extension steps, to obtain the PCR product. The NXF promoter fragment was inserted into the SmaI site of the pGL3 Basic vector (Promega) in the upstream of luciferase gene to prepare a reporter plasmid that would express the luciferase enzyme driven by the NXF promoter.
PC12 cells (available from the ATCC) were cultured using RPMI medium (GIBCO-BRL) with 5% FCS (GIBCO-BR) and 15% horse serum (GIBCO-BRL) added, and 1 mM in sodium pyruvate (GIBCO-BRL), at 37° C. in the presence of 5% CO2. After transfection in 10^6 of these PC12 cells for 2 days with 12 μg of the above-described reporter plasmid and 1 μg of pRC/RSV vector (Invitrogen) using the Lipofectamine 2000 reagent (Invitrogen), the medium was exchanged for fresh medium containing 40 mg/L of geneticin sulfate (GIBCO), and this was cultured continuously. Culturing was continued for approximately 1 month with medium exchange of the cultured medium containing 40 mg/L of geneticin sulfate (GIBCO) every several days, with the result that multiple colonies of the obtained cells were picked up. Among these, one of the colonies that induced luciferase activity in the presence of 40 ng/mL of NGF (Wako Pure Chemicals) was selected and used for the cells to evaluate the activity of the compounds below.
These cells were set up in 96-well plates with 80% confluence, and the luciferase reporter assay was conducted using the Promega Steady Glo luciferase assay kit. The procedure was carried out overnight (approx. 16 hours) using culture medium containing the compound, and the Steady Glo substrate solution was added to the cells in half-diluted in PBS after removal of all remaining medium containing the compound. After this was allowed to stand for 30 minutes, the respective quantity of light produced was measured with a luminometer (Envision Perkin Elmer).
The activity of the compounds for evaluation was measured as the potentiation of the activity of 200 ng/mL of NGF. For the experiment control wells, the negative control well had medium containing only a final concentration of 0.1% DMSO, the positive control well had medium containing a saturation concentration of NGF. In addition, a test well was set up containing 0.1% DMSO with 200 ng/mL of NGF added corresponding to a 0 compound concentration. When its luciferase activity was taken as a standard, the relative luciferase activity could be calculated for the test wells to which the compound solution (dissolved in DMSO and prepared to have a final DMSO concentration of 0.1%) had been added in addition to the 200 ng/mL of NGF, to find the potentiation of the activity of 200 ng/mL of NGF due to that compound.

[1] = Test Example 4, same manner as Test Example 1, relative luciferase activity vs 200 ng/mL NGF alone
[2] = Test Example 1, relative luciferase activity vs 200 ng/mL NGF alone, overnight (approx. 16 hours)

| SMILES | Activity (potentiation of NGF activity) [1] | Activity (potentiation of NGF activity) [2] |
| --- | --- | --- |
| Cc1nc2cc(-c3nc4ccccc4o3)ccc2n1C1CCC(=O)CC1 [Ex. 78, 5-(benzoxazol-2-yl)-1-(cyclohexanon-4-yl)-2-methylbenzimidazole] | ++ |  |
| Cc1nc2cc(-c3nc4ccccc4o3)ccc2n1C1CCOCC1 [Ex. 11, 5-(benzoxazol-2-yl)-2-methyl-1-(tetrahydropyran-4-yl)benzimidazole] |  | ++ |
| Cc1nc2cc(-c3nc4ccccc4o3)ccc2n1-c1ccccc1 [Syn. Ex. 3, 5-(benzoxazol-2-yl)-2-methyl-1-phenylbenzimidazole] |  | ++ |
| NCc1nc2cc(-c3nc4ccccc4o3)ccc2n1C1CCOCC1 [Ex. 67, 2-aminomethyl-5-(benzoxazol-2-yl)-1-(tetrahydropyran-4-yl)benzimidazole hydrochloride] | + |  |
| Cc1nc2cc(-c3nc4ccccc4o3)cc(C(F)(F)F)c2n1C1CCOCC1 [Ex. 94] | ++ |  |
| COc1ccc2oc(-c3ccc4c(c3)nc(C)n4C3CCOCC3)nc2c1 [Ex. 66, 5-(5-methoxybenzoxazol-2-yl)-2-methyl-1-(tetrahydropyran-4-yl)benzimidazole] | ++ |  |
| c1ccc(CNCc2nc3cc(-c4nc5ccccc5o4)ccc3n2C2CCOCC2)cc1 [Ex. 32, 5-(benzoxazol-2-yl)-2-benzylaminomethyl-1-(tetrahydropyran-4-yl)benzimidazole] |  | ++ |
| Cc1nc2cc(-c3nc4ccccc4o3)ccc2n1CCCN1CCOCC1 [Ex. 96, 5-(benzoxazol-2-yl)-2-methyl-1-(3-(morpholine-4-yl)propyl)benzimidazole] | ++ |  |
| Clc1ccccc1-c1nc2cc(-c3nc4ccccc4o3)ccc2n1C1CCOCC1 [Ex. 126, 5-(benzoxazol-2-yl)-2-(2-chlorophenyl)-1-(tetrahydropyran-4-yl)benzimidazole] | ++ |  |
| C(=C\c1nc2cc(-c3nc4ccccc4o3)ccc2n1C1CCOCC1)/c1ccccc1 [Ex. 62, 5-(benzoxazol-2-yl)-2-trans-cinnam-1-(tetrahydropyran-4-yl)benzimidazole] | ++ |  |
| Cc1nc2cc(-c3nc4cc([N+](=O)[O-])ccc4o3)ccc2n1C1CCOCC1 [Ex. 60, 5-(5-nitrobenzoxazol-2-yl)-2-methyl-1-(tetrahydropyran-4-yl)benzimidazole] | ++ |  |
| CN(C)Cc1nc2cc(-c3nc4ccccc4o3)ccc2n1C1CCOCC1 [Ex. 14, 5-(benzoxazol-2-yl)-2-(N,N-dimethylaminomethyl)-1-(tetrahydropyran-4-yl)benzimidazole] |  | + |
| c1ccc2oc(-c3ccc4c(c3)nc(-c3ccoc3)n4C3CCOCC3)nc2c1 [Ex. 64, 5-(benzoxazol-2-yl)-2-(furan-3-yl)-1-(tetrahydropyran-4-yl)benzimidazole] | ++ |  |
| ClC(Cl)(Cl)c1nc2cc(-c3nc4ccccc4o3)ccc2n1C1CCOCC1 [Ex. 77, 5-(benzoxazol-2-yl)-1-(tetrahydropyran-4-yl)-2-trichloromethylbenzimidazole] | + |  |
| c1ccc2oc(-c3ccc4c(c3)nc(C3CCCO3)n4C3CCOCC3)nc2c1 (stereo not drawn) [Ex. 90, 5-(benzoxazol-2-yl)-2-(tetrahydrofuran-2-yl)-1-(tetrahydropyran-4-yl)benzimidazole] | ++ |  |
| Cc1nc2cc(-c3nc4ccccc4o3)ccc2n1CCc1ccccc1 [Ex. 52, 5-(benzoxazol-2-yl)-2-methyl-1-(2-phenylethyl)benzimidazole] | ++ |  |
| CCOC(=O)N1CCC(n2c(C)nc3cc(-c4nc5ccccc5o4)ccc32)CC1 [Ex. 33, 5-(benzoxazol-2-yl)-1-((1-ethoxycarbonyl)piperidine-4-yl)-2-methylbenzimidazole] |  | ++ |

| SMILES | Activity (potentiation of NGF activity) [1] | Activity (potentiation of NGF activity) [2] |
| --- | --- | --- |
| Cc1nc2cc(-c3nc4ccccc4o3)ccc2n1CCNC(=O)C(F)(F)F [Ex. 109, 5-(benzoxazol-2-yl)-2-methyl-1-(2-trifluoroacetylaminoethyl)benzimidazole] | ++ |  |
| CCCNC(=O)c1ccc2oc(-c3ccc4c(c3)nc(C)n4C3CCOCC3)nc2c1 [Ex. 99, 2-methyl-5-(5-n-propylaminocarbonylbenzoxazol-2-yl)-1-(tetrahydropyran-4-yl)benzimidazole] | ++ |  |
| Cc1nc2cc(-c3nc4ccccc4o3)ccc2n1CCNC(=O)CCC(=O)O [Ex. 108, 4-oxo-4-(2-(5-(benzoxazol-2-yl)-2-methylbenzimidazol-1-yl)ethyl)aminobutyric acid] | ++ |  |
| Cc1nc2cc(-c3nc4ccccc4o3)ccc2n1CC(=O)O [Ex. 92, 5-(benzoxazol-2-yl)-1-carboxymethyl-2-methylbenzimidazole] | ++ |  |
| Cc1nc2cc(-c3nc4ccccc4o3)ccc2n1C1CC1 [Ex. 53, 5-(benzoxazol-2-yl)-2-methyl-1-cyclopropylbenzimidazole] | ++ |  |
| COC(=O)c1cccc(Cn2c(C)nc3cc(-c4nc5ccccc5o4)ccc32)c1 [Ex. 117, 5-(benzoxazol-2-yl)-1-(3-methoxycarbonylphenylmethyl)-2-methylbenzimidazole] | ++ |  |
| c1ccc(-c2nc3cc(-c4nc5ccccc5o4)ccc3n2C2CCOCC2)cc1 [Ex. 25, 5-(benzoxazol-2-yl)-2-phenyl-1-(tetrahydropyran-4-yl)benzimidazole] |  | ++ |
| CC(C)(C)OC(=O)NCc1nc2cc(-c3nc4ccccc4o3)ccc2n1C1CCOCC1 [Ex. 58, 5-(benzoxazol-2-yl)-2-(tert-butoxycarbamidomethyl)-1-(tetrahydropyran-4-yl)benzimidazole] | ++ |  |
| CC(=O)NCc1nc2cc(-c3nc4cc(Cl)ccc4o3)ccc2n1C1CCOCC1 [Ex. 104, 2-acetylaminomethyl-5-(5-chlorobenzoxazol-2-yl)-1-(tetrahydropyran-4-yl)benzimidazole] | ++ |  |
| COc1ccccc1-n1c(C)nc2cc(-c3nc4ccccc4o3)ccc21 [Ex. 30, 5-(benzoxazol-2-yl)-1-(2-methoxyphenyl)-2-methylbenzimidazole] |  | ++ |
| CN(C)Cc1nc2cc(-c3nc4ccccc4s3)ccc2n1C1CCOCC1 [Ex. 9, 5-(benzothiazol-2-yl)-2-(N,N-dimethylaminomethyl)-1-(tetrahydropyran-4-yl)benzimidazole] |  | ++ |
| c1ccc2oc(-c3ccc4c(c3)nc(C3CCCCC3)n4C3CCOCC3)nc2c1 [Ex. 23, 5-(benzoxazol-2-yl)-2-cyclohexyl-1-(tetrahydropyran-4-yl)benzimidazole] |  | ++ |
| Cc1nc2cc(-c3cc4ccccc4n3C(=O)OC(C)(C)C)ccc2n1C1CCOCC1 [Ex. 37, 5-(N-t-butoxycarbonylindol-2-yl)-2-methyl-1-(tetrahydropyran-4-yl)benzimidazole] |  | ++ |
| c1ccc2oc(-c3ccc4c(c3)nc(-c3ccncc3)n4C3CCOCC3)nc2c1 [Ex. 26, 5-(benzoxazol-2-yl)-2-(4-pyridyl)-1-(tetrahydropyran-4-yl)benzimidazole] |  | ++ |
| COC(=O)c1ccc(Cn2c(C)nc3cc(-c4nc5ccccc5o4)ccc32)cc1 [Ex. 113, 5-(benzoxazol-2-yl)-1-(4-methoxycarbonylphenylmethyl)-2-methylbenzimidazole] | ++ |  |
| CS(=O)(=O)CCc1nc2cc(-c3nc4ccccc4o3)ccc2n1C1CCOCC1 [Ex. 134, 5-(benzoxazol-2-yl)-2-(2-(methylsulfonyl)ethyl)-1-(tetrahydropyran-4-yl)benzimidazole] | ++ |  |
